Laboratory results taken from US20160002248A1, “GLS1 INHIBITORS FOR TREATING DISEASE” (Board of Regents, The University of Texas System, priority 2014, published 2016).
pEC50, pIC50: −log10 of the molar value.

What was measured:
A549 cells = test: Proliferation Assay (A549 cell viability, Cell Titer Fluor); format: cell-based; conditions: Homo sapiens, 72 hours
Outline: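 Compound exposure lasted 72 h (final DMSO 0.5% v/v) on A549 cells plated at 1000 cells/well one day earlier. Cell Titer Fluor added, 30 min at 37 °C, fluorescence read; EC50 derived by four-parameter logistic curve fitting.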

[1] = target: T1, purified recombinant human GAC (GLS1) (Homo sapiens, UniProt O94925); test: GLS1 Enzymatic Activity Assay (dual-coupled enzymatic assay); format: biochemical
T1 sequence (O94925 55-598 isoform O94925-3 limits assumed): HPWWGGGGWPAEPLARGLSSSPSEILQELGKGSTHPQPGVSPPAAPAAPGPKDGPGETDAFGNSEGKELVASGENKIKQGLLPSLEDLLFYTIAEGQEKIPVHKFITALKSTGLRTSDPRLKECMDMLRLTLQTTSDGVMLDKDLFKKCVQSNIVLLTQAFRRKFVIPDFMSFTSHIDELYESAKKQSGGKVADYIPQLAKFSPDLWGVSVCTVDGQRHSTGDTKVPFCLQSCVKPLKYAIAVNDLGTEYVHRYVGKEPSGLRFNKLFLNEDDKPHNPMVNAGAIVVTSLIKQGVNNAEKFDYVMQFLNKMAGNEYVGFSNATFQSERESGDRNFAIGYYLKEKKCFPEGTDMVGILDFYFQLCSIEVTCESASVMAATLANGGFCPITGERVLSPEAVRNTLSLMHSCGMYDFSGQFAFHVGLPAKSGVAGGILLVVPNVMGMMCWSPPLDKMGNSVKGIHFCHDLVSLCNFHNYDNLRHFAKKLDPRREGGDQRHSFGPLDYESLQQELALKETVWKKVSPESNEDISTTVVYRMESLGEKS
Outline: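 In this coupled fluorometric format, phosphate-activated GAC (2 nM, 50 mM phosphate) is pre-exposed to compound for 10 min before 1 mM glutamine addition. Product is tracked as resorufin (530/590 nm) over time or at 20 min, and potency is derived by logistic fitting.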

pEC50 (A549 cells)	pIC50 [1]	SMILES
6.30 to 7.00	> 7.00	O=C(Cc1cccc(OC(F)(F)F)c1)Nc1nnc(CCCCc2cc3cc(Cc4ccccc4)[nH]c3nn2)s1 [Example 58, N-[5-(4-{6-benzyl-7H-pyrrolo[2,3-c]pyridazin-3-yl}butyl)-1,3,4-thiadiazol-2-yl]-2-[3-(trifluoromethoxy)phenyl]acetamide]
> 7.00	> 7.00	CC(C)(C)OC(=O)NCc1cccc(CC(=O)Nc2nnc(CCCCc3cc4cc(Cc5ccccc5)[nH]c4nn3)s2)c1 [Example 59, tert-butyl N-{[3-({[5-(4-{6-benzyl-7H-pyrrolo[2,3-c]pyridazin-3-yl}butyl)-1,3,4-thiadiazol-2-yl]carbamoyl}methyl)phenyl]methyl}carbamate]
5.30 to 6.30	> 7.00	O=C(Nc1nnc(CCCCc2cc3cc(Cc4ccccc4)[nH]c3nn2)s1)[C@H](O)c1ccccc1 [Example 60, (2R)-N-[5-(4-(6-benzyl-7H-pyrrolo[2,3-c]pyridazin-3-yl}butyl)-1,3,4-thiadiazol-2-yl]-2-hydroxy-2-phenylacetamide]
5.30 to 6.30	> 7.00	O=C(Nc1nnc(CCCCc2cc3cc(Cc4ccccc4)[nH]c3nn2)s1)OC1CCOCC1 [Example 61, oxan-4-yl N-[5-(4-{6-benzyl-7H-pyrrolo[2,3-c]pyridazin-3-yl}butyl)-1,3,4-thiadiazol-2-yl]carbamate]
5.30 to 6.30	> 7.00	O=C(Cc1ccccc1)Nc1ccn(CCCCc2cc3cc(Cc4ccccc4)[nH]c3nn2)c(=O)n1 [Example 62, N-[1-(4-{6-benzyl-7H-pyrrolo[2,3-c]pyridazin-3-yl}butyl)-2-oxo-1,2-dihydropyrimidin-4-yl]-2-phenylacetamide]
5.30 to 6.30	6.30 to 7.00	O=C(Cc1cccc(OC(F)(F)F)c1)Nc1nnc(CCCCc2cc3cc[nH]c3nn2)s1 [Example 63, N-[5-(4-{7H-pyrrolo[2,3-c]pyridazin-3-yl}butyl)-1,3,4-thiadiazol-2-yl]-2-[3-(trifluoromethoxy)phenyl]acetamide]
6.30 to 7.00	5.30 to 6.30	CC(C)CNC(=O)c1cn(CCCCc2cc3cc(Cc4ccccc4)[nH]c3nn2)nn1 [Example 65, 1-(4-{6-benzyl-7H-pyrrolo[2,3-c]pyridazin-3-yl}butyl)-N-(2-methylpropyl)-1H-1,2,3-triazole-4-carboxamide]
5.30 to 6.30	6.30 to 7.00	O=C(Nc1nnc(CCCCc2cc3cc[nH]c3nn2)s1)[C@@H](O)c1ccccc1 [Example 66, (2S)-2-hydroxy-2-phenyl-N-[5-(4-{7H-pyrrolo[2,3-c]pyridazin-3-yl}butyl)-1,3,4-thiadiazol-2-yl]acetamide]
6.30 to 7.00	6.30 to 7.00	COCCNC(=O)c1nnc(CCCCc2cc3cc(Cc4ccccc4)[nH]c3nn2)s1 [Example 67, 5-(4-{6-benzyl-7H-pyrrolo[2,3-c]pyridazin-3-yl}butyl)-N-(2-methoxyethyl)-1,3,4-thiadiazole-2-carboxamide]
5.30 to 6.30	5.30 to 6.30	O=C(NCCO)c1nnc(CCCCc2cc3cc(Cc4ccccc4)[nH]c3nn2)s1 [Example 68, 5-(4-{6-benzyl-7H-pyrrolo[2,3-c]pyridazin-3-yl}butyl)-N-(2-hydroxyethyl)-1,3,4-thiadiazole-2-carboxamide]
5.30 to 6.30	6.30 to 7.00	O=C(NCC1COC1)c1nnc(CCCCc2cc3cc(Cc4ccccc4)[nH]c3nn2)s1 [Example 69, 5-(4-{6-benzyl-7H-pyrrolo[2,3-c]pyridazin-3-yl}butyl)-N-(oxetan-3-ylmethyl)-1,3,4-thiadiazole-2-carboxamide]
6.30 to 7.00	6.30 to 7.00	CNC(=O)c1nnc(CCCCc2cc3cc(Cc4ccccc4)[nH]c3nn2)s1 [Example 70, 5-(4-{6-benzyl-7H-pyrrolo[2,3-c]pyridazin-3-yl}butyl)-N-methyl-1,3,4-thiadiazole-2-carboxamide]
< 5.30	6.30 to 7.00	O=C(NC1COC1)c1nnc(CCCCc2cc3cc(Cc4ccccc4)[nH]c3nn2)s1 [Example 72, 5-(4-{6-benzyl-7H-pyrrolo[2,3-c]pyridazin-3-yl}butyl)-N-(oxetan-3-yl)-1,3,4-thiadiazole-2-carboxamide]
5.30 to 6.30	> 7.00	O=C(NCc1ccccc1)c1nnc(CCCCc2cc3cc(Cc4ccccc4)[nH]c3nn2)s1 [Example 73, N-benzyl-5-(4-{6-benzyl-7H-pyrrolo[2,3-c]pyridazin-3-yl}butyl)-1,3,4-thiadiazole-2-carboxamide]
6.30 to 7.00	> 7.00	O=C(NCc1ccccn1)c1nnc(CCCCc2cc3cc(Cc4ccccc4)[nH]c3nn2)s1 [Example 74, 5-(4-{6-benzyl-7H-pyrrolo[2,3-c]pyridazin-3-yl}butyl)-N-(pyridin-2-ylmethyl)-1,3,4-thiadiazole-2-carboxamide]
5.30 to 6.30	6.30 to 7.00	O=C(NCc1ccncc1)c1nnc(CCCCc2cc3cc(Cc4ccccc4)[nH]c3nn2)s1 [Example 75, 5-(4-{6-benzyl-7H-pyrrolo[2,3-c]pyridazin-3-yl}butyl)-N-(pyridin-4-ylmethyl)-1,3,4-thiadiazole-2-carboxamide]
6.30 to 7.00	> 7.00	O=C(NCc1cccnc1)c1nnc(CCCCc2cc3cc(Cc4ccccc4)[nH]c3nn2)s1 [Example 76, 5-(4-{6-benzyl-7H-pyrrolo[2,3-c]pyridazin-3-yl}butyl)-N-(pyridin-3-ylmethyl)-1,3,4-thiadiazole-2-carboxamide]
5.30 to 6.30	6.30 to 7.00	O=C(NCC1CC1)c1nnc(CCCCc2cc3cc(Cc4ccccc4)[nH]c3nn2)s1 [Example 77, 5-(4-{6-benzyl-7H-pyrrolo[2,3-c]pyridazin-3-yl}butyl)-N-(cyclopropylmethyl)-1,3,4-thiadiazole-2-carboxamide]
5.30 to 6.30	6.30 to 7.00	O=C(NCC1CCOCC1)c1nnc(CCCCc2cc3cc(Cc4ccccc4)[nH]c3nn2)s1 [Example 78, 5-(4-{6-benzyl-7H-pyrrolo[2,3-c]pyridazin-3-yl}butyl)-N-(oxan-4-ylmethyl)-1,3,4-thiadiazole-2-carboxamide]
5.30 to 6.30	6.30 to 7.00	CC(C)(CO)CNC(=O)c1nnc(CCCCc2cc3cc(Cc4ccccc4)[nH]c3nn2)s1 [Example 79, 5-(4-{6-benzyl-7H-pyrrolo[2,3-c]pyridazin-3-yl}butyl)-N-(3-hydroxy-2,2-dimethylpropyl)-1,3,4-thiadiazole-2-carboxamide]
5.30 to 6.30	6.30 to 7.00	NC(=O)c1nnc(CCCCc2cc3cc(Cc4ccccc4)[nH]c3nn2)s1 [Example 80, 5-(4-{6-benzyl-7H-pyrrolo[2,3-c]pyridazin-3-yl}butyl)-1,3,4-thiadiazole-2-carboxamide]
< 5.30	6.30 to 7.00	O=C(NCC(F)(F)F)c1nnc(CCCCc2cc3cc(Cc4ccccc4)[nH]c3nn2)s1 [Example 81, 5-(4-{6-benzyl-7H-pyrrolo[2,3-c]pyridazin-3-yl}butyl)-N-(2,2,2-trifluoroethyl)-1,3,4-thiadiazole-2-carboxamide]
5.30 to 6.30	6.30 to 7.00	O=C(NCC1CCOC1)c1nnc(CCCCc2cc3cc(Cc4ccccc4)[nH]c3nn2)s1 (centres unmarked) [Example 82, 5-(4-{6-benzyl-7H-pyrrolo[2,3-c]pyridazin-3-yl}butyl)-N-(oxolan-3-ylmethyl)-1,3,4-thiadiazole-2-carboxamide]
< 5.30	6.30 to 7.00	O=C(NCCC(F)(F)F)c1nnc(CCCCc2cc3cc(Cc4ccccc4)[nH]c3nn2)s1 [Example 83, 5-(4-{6-benzyl-7H-pyrrolo[2,3-c]pyridazin-3-yl}butyl)-N-(3,3,3-trifluoropropyl)-1,3,4-thiadiazole-2-carboxamide]
5.30 to 6.30	6.30 to 7.00	COC(C)(C)CNC(=O)c1nnc(CCCCc2cc3cc(Cc4ccccc4)[nH]c3nn2)s1 [Example 84, 5-(4-{6-benzyl-7H-pyrrolo[2,3-c]pyridazin-3-yl}butyl)-N-(2-methoxy-2-methylpropyl)-1,3,4-thiadiazole-2-carboxamide]
> 7.00	> 7.00	O=C(NCc1ccccn1)c1cn(CCCCc2cc3cc(CC4CCCCC4)[nH]c3nn2)nn1 [Example 85, 1-(4-(6-(cyclohexylmethyl)-7H-pyrrolo[2,3-c]pyridazin-3-yl)butyl)-N-(pyridin-2-ylmethyl)-1H-1,2,3-triazole-4-carboxamide]
6.30 to 7.00	> 7.00	CC(C)(O)c1ccc(CNC(=O)c2cn(CCCCc3cc4cc(C5CC5)[nH]c4nn3)nn2)cn1 [Example 86, 1-(4-{6-cyclopropyl-7H-pyrrolo[2,3-c]pyridazin-3-yl}butyl)-N-{[6-(2-hydroxypropan-2-yl)pyridin-3-yl]methyl}-1H-1,2,3-triazole-4-carboxamide]
5.30 to 6.30	6.30 to 7.00	CC(C)(O)c1cccc(CNC(=O)c2cn(CCCCc3cc4cc(C5CC5)[nH]c4nn3)nn2)n1 [Example 87, 1-(4-(6-cyclopropyl-7H-pyrrolo[2,3-c]pyridazin-3-yl)butyl)-N-((6-(2-hydroxypropan-2-yl)pyridin-2-yl)methyl)-1H-1,2,3-triazole-4-carboxamide]
